Source: patent US20230082130A1, “USE OF C[…] TO TREAT OR PREVENT FUNGAL GROWTH OF C. ALBICANS” (Demetrix, Inc., priority 2021, published 2023)
Values after ≈ are worked out from the molar mass of the structure shown. Where two headings read alike, the source gives them in different places.

Test system: C. albicans
Experiment: minimum inhibitory concentration (MIC) assay against C. albicans
Format: cell-based, Candida albicans
Details: growth inhibition of C. albicans, assay performed by Charles River Laboratories
Protocol: To determine the ability of the cannabinoid compounds described herein to reduce, inhibit, or eliminate, C. albicans a minimum inhibitory concentration (“MIC”) assay was performed. […] The assay was performed by Charles River Laboratories International (Wilmington, Mass.) in accordance with industry standards.

[1] = Candida albicans, read-out: MIC

| Molecule | MIC | MIC [1] | MIC (Candida albicans) |
| --- | --- | --- | --- |
| C=C(C)[C@@H]1CCC(C)=C[C@H]1c1c(O)cc(CCCCC)cc1O [CBD, cannabidol] | 200 µg/mL (≈ 636 µM) |  |  |
| CCCCCc1cc(O)c2c(c1)OC(C)(CCC=C(C)C)C=C2 (centres unmarked) [CBC, cannabichromene] | >200 µg/mL | > 200 µg/mL |  |
| CCCCc1cc(O)c(CC=C(C)CCC=C(C)C)c(O)c1 [CBG-C4, cannabigerol butyl] | 200 µg/mL (≈ 661 µM) |  |  |
| CCCCCc1cc(O)c(C/C=C(\C)CCC=C(C)C)c(O)c1 [CBG, cannabigerol] | >200 µg/mL | > 200 µg/mL |  |
| C=C(C)[C@@H]1CCC(C)=C[C@H]1c1c(O)cc(CCC)c(C(=O)O)c1O [CBDVA, cannabidivarinic acid] | >200 µg/mL |  |  |
| CCCCCc1cc(O)c(C/C=C(\C)CCC=C(C)C)c(O)c1C(=O)O [CBGA, cannabigerolic acid] | >200 µg/mL | > 200 µg/mL |  |
| CCCCCc1cc2c(c(O)c1C(=O)O)C=CC(C)(CCC=C(C)C)O2 (centres unmarked) [CBCA, cannabichromenic acid] | >200 µg/mL |  |  |
| CCCc1cc(O)c(C/C=C(\C)CCC=C(C)C)c(O)c1 [CBGV, cannabigerivarin] | 50 µg/mL (≈ 173 µM) |  |  |
| C=C(C)[C@@H]1CCC(C)=C[C@H]1c1c(O)cc(CCCCC)c(C(=O)O)c1O [CBDA, cannabidiolic acid] | >200 µg/mL | > 200 µg/mL |  |
| C=C(C)[C@@H]1CCC(C)=C[C@H]1c1c(O)cc(CCC)cc1O [CBDV, cannabidivarin] |  |  | < 25 µg/mL |
| CCCCCc1cc(O)c2c(c1)OC1(C)CCC3C1C2C3(C)C (centres unmarked) [CBL, cannabicyclol] | >200 µg/mL | > 200 µg/mL |  |
| (+)-cannabidiol [(+)-CBD] | >200 µg/mL |  |  |
| CCCCCc1cc(O)c2c(c1)OC(C)(C)c1ccc(C)cc1-2 [CBN, cannabinol] | >200 µg/mL | > 200 µg/mL |  |
| CCCCCc1cc2c(c(O)c1C(=O)O)C1C3C(CCC3(C)O2)C1(C)C (centres unmarked) [CBLA, cannabicyclolic acid] | >200 µg/mL |  |  |
| CCCCc1cc(O)c(C/C=C(\C)CCC=C(C)C)c(O)c1C(=O)O [CBGA-C4, cannabigerolic acid butyl] | >200 µg/mL |  |  |
| CCCc1cc(O)c(C/C=C(\C)CCC=C(C)C)c(O)c1C(=O)O [CBGVA, cannabigerovarinic acid] | >200 µg/mL |  |  |
| CCCCCc1cc2c(c(O)c1C(=O)O)-c1cc(C)ccc1C(C)(C)O2 [CBNA, cannabinolic acid] | >200 µg/mL |  |  |
